Assay results published in ChEMBL document CHEMBL1141635, “Novel GSK-3beta inhibitors from sequential virtual screening” (Bioorg Med Chem, 2008).

target: Glycogen synthase kinase-3 beta (Homo sapiens) (UniProt P49841); assay: Inhibition of human GSK3-beta assessed as remaining enzyme activity at 10 uM
Sequence (P49841 whole entry, looked up): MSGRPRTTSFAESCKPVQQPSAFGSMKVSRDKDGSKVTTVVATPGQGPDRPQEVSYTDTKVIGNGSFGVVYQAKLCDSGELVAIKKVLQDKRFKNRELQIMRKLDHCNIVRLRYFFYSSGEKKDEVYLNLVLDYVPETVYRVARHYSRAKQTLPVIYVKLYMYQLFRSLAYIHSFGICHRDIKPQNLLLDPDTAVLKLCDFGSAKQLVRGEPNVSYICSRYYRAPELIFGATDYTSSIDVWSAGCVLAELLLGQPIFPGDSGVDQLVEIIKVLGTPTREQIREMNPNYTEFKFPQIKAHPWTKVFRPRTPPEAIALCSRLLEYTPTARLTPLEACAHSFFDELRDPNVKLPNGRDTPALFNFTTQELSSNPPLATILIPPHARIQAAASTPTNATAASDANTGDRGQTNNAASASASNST

Row | Activity [%] | SMILES
1 | 18 | Cc1ccc(/N=C2/NC(=O)S/C2=C\c2ccccc2Cl)cc1
2 | 7 | O=C1NC(=S)S/C1=C\c1ccc(O)c([N+](=O)[O-])c1
3 | 8 | O=C1NC(=O)/C(=C/c2ccc(-c3cc([N+](=O)[O-])ccc3Cl)o2)S1
4 | 99 | CC1=NCCNC2=C1[C@H](c1ccc(F)cc1)N(c1ccccn1)C2=O
5 | 95 | CCCNc1nc2ccccn2c(=O)c1/C=C1\SC(=S)NC1=O
6 | 67 | Cc1ccc(S(=O)(=O)n2cc(/C=C3\SC(=S)NC3=O)c3ccccc32)cc1
7 | 14 | O=C1NC(=S)S/C1=C\c1ccccc1OS(=O)(=O)c1ccccc1[N+](=O)[O-]
8 | 58 | CCOc1cc(C=C2C(=O)NC(=S)NC2=O)cc(I)c1OC
9 | 41 | Cc1cc(/C=C2\SC(=S)NC2=O)c(C)n1-c1cccc([N+](=O)[O-])c1
10 | 6 | COc1cc(/C=C2\SC(=S)NC2=O)cc(Br)c1OCc1ccccc1C
11 | 5 | COc1ccc(-c2ccc(/C=C3\SC(=S)NC3=O)o2)c([N+](=O)[O-])c1
12 | 41 | O=C1CC(C(F)(F)F)=NC(Sc2c(-c3ccccc3)c3cc([N+](=O)[O-])ccc3[nH]c2=O)=N1
13 | 84 | COc1ccc2c(c1)/C(=C1/SC(=S)NC1=O)C(=O)N2
